Data from patent US20220062240A1, “METHODS OF TREATING CANCER USING A CLK INHIBITOR” (BioSplice Therapeutics, Inc., priority 2018, published 2022).
Where two headings read alike, the source gives them in different places.

Tests used:
all 50 cell lines = experiment: CellTiter-Glo Viability Assay, average across all cell lines; type: cell-based; details: Homo sapiens; across all 50 cell lines; read-out: average EC50 for inhibition of cancer cell proliferation
Method in brief: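 Cancer cell lines of several tumour types plated at 300-3,000 cells/well and exposed to compound in duplicate for four days at 37° C, 5% CO2, with DMSO-treated controls. Viability read by CellTiter-Glo luminescence (ATP content); EC50 derived from dose-response curves.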

[1] = system: liver cancer (3 cell lines); experiment: CellTiter-Glo Viability Assay, liver cancer; type: cell-based; details: Homo sapiens, inhibition of cancer cell proliferation
[2] = system: lung cancer (4 cell lines); experiment: CellTiter-Glo Viability Assay, lung cancer; type: cell-based; details: Homo sapiens, inhibition of cancer cell proliferation
CLK2 = target: T1, CLK2 (Homo sapiens, UniProt P49760); experiment: CLK2 kinase activity assay (Z-lyte, Ser/Thr 6 peptide); type: biochemical; details: recombinant CLK2 kinase, ATP 60 μM; read-out: EC50
T1 construct: purchased Thermo Fisher (Life Technologies), Z'-LYTE Kinase Assay Kits
Procedure: All reactions were performed in duplicate.

[3] = system: ovarian cancer (4 cell lines); experiment: CellTiter-Glo Viability Assay, ovarian cancer; type: cell-based; details: Homo sapiens, inhibition of cancer cell proliferation
ZR-75-1 = experiment: CellTiter-Glo Viability Assay, breast cancer; type: cell-based; details: Homo sapiens, 96 h; ZR-75-1, breast cancer, four days; read-out: EC50
BT-549 = experiment: CellTiter-Glo Viability Assay, breast cancer; type: cell-based; details: Homo sapiens, 96 h; BT-549, breast cancer, four days; read-out: EC50
CAMA1 = experiment: CellTiter-Glo Viability Assay, breast cancer; type: cell-based; details: Homo sapiens, CAMA-1, 96 h; CAMA1, breast cancer, four days; read-out: EC50
T47D = experiment: CellTiter-Glo Viability Assay, breast cancer; type: cell-based; details: Homo sapiens, 96 h, breast cancer, four days, read-out: EC50
DU4475 = experiment: CellTiter-Glo Viability Assay, breast cancer; type: cell-based; details: Homo sapiens, DU-4475, 96 h; DU4475, breast cancer, four days; read-out: EC50
MCF7 = experiment: CellTiter-Glo Viability Assay, breast cancer; type: cell-based; details: Homo sapiens, 96 h; MCF7, breast cancer, four days; read-out: EC50
MDA-MB-231-Luc = experiment: CellTiter-Glo Viability Assay, breast cancer; type: cell-based; details: Homo sapiens, 96 h; MDA-MB-231-Luc, breast cancer, four days; read-out: EC50
HCC1599 = experiment: CellTiter-Glo Viability Assay, breast cancer; type: cell-based; details: Homo sapiens, 96 h; HCC1599, breast cancer, four days; read-out: EC50
[4] = system: haematopoietic & lymphoid tumors (13 cell lines); experiment: CellTiter-Glo Viability Assay, haematopoietic & lymphoid tumors; type: cell-based; details: Homo sapiens, inhibition of cancer cell proliferation
[5] = system: prostate cancer (5 cell lines); experiment: CellTiter-Glo Viability Assay, prostate cancer; type: cell-based; details: Homo sapiens
[6] = system: colorectal cancer (6 cell lines); experiment: CellTiter-Glo Viability Assay, colorectal cancer; type: cell-based; details: Homo sapiens, inhibition of cancer cell proliferation
[7] = system: pancreatic cancer (8 cell lines); experiment: CellTiter-Glo Viability Assay, pancreatic cancer; type: cell-based; details: Homo sapiens, inhibition of cancer cell proliferation

T1 sequence (P49760 whole entry): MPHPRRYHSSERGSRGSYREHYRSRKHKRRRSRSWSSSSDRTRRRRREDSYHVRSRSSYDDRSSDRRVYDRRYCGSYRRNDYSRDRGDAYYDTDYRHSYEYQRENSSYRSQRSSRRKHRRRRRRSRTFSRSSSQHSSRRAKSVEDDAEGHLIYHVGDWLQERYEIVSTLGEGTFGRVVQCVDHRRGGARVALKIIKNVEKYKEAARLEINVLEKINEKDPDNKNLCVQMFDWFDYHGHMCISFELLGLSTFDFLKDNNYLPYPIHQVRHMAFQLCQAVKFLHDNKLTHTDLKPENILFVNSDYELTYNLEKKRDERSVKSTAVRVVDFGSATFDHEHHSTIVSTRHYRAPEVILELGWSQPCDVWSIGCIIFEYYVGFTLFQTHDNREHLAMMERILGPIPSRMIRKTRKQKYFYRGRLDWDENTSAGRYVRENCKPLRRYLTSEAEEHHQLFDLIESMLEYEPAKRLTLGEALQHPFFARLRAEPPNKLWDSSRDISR

CN1CCN(c2cc(C(=O)Nc3cc4cc(-c5cnn(C)c5)c(F)cc4cn3)ccn2)CC1 [Compound 69] gave an EC50 (all 50 cell lines) of 636 nM, an EC50 ([1]; SNU-398, SNU398 cell line, read-out: Liver cancer, EC50 SNU398) of 166 nM and an EC50 ([1]; HEPG2 cell line, read-out: Liver cancer, EC50 HEPG2) of 372 nM. The EC50 ([1]; PLC/PRF/5 cell line, read-out: Liver cancer, EC50 PLC/PRF/5) was 864 nM, the EC50 ([2]; A-427, A427 cell line, read-out: Lung cancer, EC50 (μM) A427) was 0.756 µM and the EC50 ([2]; HCC78, HCC-78 cell line, read-out: Lung cancer, EC50 (μM) HCC-78) was 0.666 µM. The EC50 ([2]; NCI-H460 cell line, read-out: Lung cancer, EC50 (μM) NCI-H460) was 0.922 µM, the EC50 ([2]; NCI-H522 cell line, read-out: Lung cancer, EC50 (μM) NCI-H522) was 0.43 µM and the EC50 (CLK2) was 1.9 nM. The EC50 ([3]; PA-1, PA1 cell line, read-out: Ovarian cancer, EC50 (μM) PA1) was 0.195 µM, the EC50 ([3]; TOV112D, TOV-112D cell line, read-out: Ovarian cancer, EC50 (μM) TOV-112D) was 0.233 µM and the EC50 ([3]; OV-90 cell line, read-out: Ovarian cancer, EC50 (μM) OV-90) was 0.901 µM. For the same compound, the EC50 ([3]; OVCAR-3 cell line, read-out: Ovarian cancer, EC50 (μM) OVCAR-3) was 0.406 µM, the EC50 (ZR-75-1) was 412 nM and the EC50 (BT-549) was 718 nM. The EC50 (CAMA1) was 1230 nM, the EC50 (T47D) was 1290 nM and the EC50 (DU4475) was 374 nM. The EC50 (MCF7) was 3340 nM, the EC50 (MDA-MB-231-Luc) was 312 nM and the EC50 (HCC1599) was 648 nM. The EC50 ([4]; DND41, DND-41 cell line, read-out: Haematopoietic & Lymphoid tumors, EC50 (μM) DND-41) was 0.225 µM, the EC50 ([4]; MV4-11, MV-4-11 cell line, read-out: Haematopoietic & Lymphoid tumors, EC50 (μM) MV-4-11) was 0.101 µM and the EC50 ([4]; Rec1, REC-1 cell line, read-out: Haematopoietic & Lymphoid tumors, EC50 (μM) REC-1) was 0.11 µM. The EC50 ([4]; SU-DHL-4, SUDHL4 cell line, read-out: Haematopoietic & Lymphoid tumors, EC50 (μM) SUDHL4) was 0.498 µM, the EC50 ([4]; HL-60 cell line, read-out: Haematopoietic & Lymphoid tumors, EC50 (μM) HL-60) was 0.522 µM and the EC50 ([4]; JM1 cell line, read-out: Haematopoietic & Lymphoid tumors, EC50 (μM) JM1) was 0.122 µM. The EC50 ([4]; JURKAT, Clone E6-1 cell line, read-out: Haematopoietic & Lymphoid tumors, EC50 (μM) JURKAT, Clone E6-1) was 0.5 µM, the EC50 ([4]; JeKo-1 cell line, read-out: Haematopoietic & Lymphoid tumors, EC50 (μM) JeKo-1) was 0.458 µM and the EC50 ([4]; KASUMI-1 cell line, read-out: Haematopoietic & Lymphoid tumors, EC50 (μM) KASUMI-1) was 1 µM. The EC50 ([4]; Loucy cell line, read-out: Haematopoietic & Lymphoid tumors, EC50 (μM) Loucy) was 0.385 µM, the EC50 ([4]; MOLT-4 cell line, read-out: Haematopoietic & Lymphoid tumors, EC50 (μM) MOLT-4) was 0.343 µM and the EC50 ([4]; TF-1 cell line, read-out: Haematopoietic & Lymphoid tumors, EC50 (μM) TF-1) was 0.35 µM. The EC50 ([4]; TOLEDO cell line, read-out: Haematopoietic & Lymphoid tumors, EC50 (μM) TOLEDO) was 0.132 µM, the EC50 ([5]; DU-145, read-out: Prostate cancer EC50 Du-145) was 748 nM and the EC50 ([5]; PC-3, PC3 cell line, inhibition of cancer cell proliferation, read-out: Prostate cancer EC50 PC3) was 866 nM. The EC50 ([5]; 22Rv1 cell line, inhibition of cancer cell proliferation, read-out: Prostate cancer EC50 22Rv1) was 316 nM, the EC50 ([5]; LNCap clone FGC cell line, inhibition of cancer cell proliferation, read-out: Prostate cancer EC50 LNCap clone FGC) was 426 nM and the EC50 ([5]; VCaP (Sigma) cell line, inhibition of cancer cell proliferation, read-out: Prostate cancer EC50 VCaP (Sigma)) was 3400 nM. It also gave an EC50 ([6]; HCT-116, HCT116 cell line, read-out: Colorectal cancer, EC50 (μM) HCT116) of 0.156 µM, an EC50 ([6]; HT-29, HT29 cell line, read-out: Colorectal cancer, EC50 (μM) HT29) of 0.318 µM and an EC50 ([6]; SW-620, SW620 cell line, read-out: Colorectal cancer, EC50 (μM) SW620) of 0.125 µM. It also gave an EC50 ([6]; DLD-1 cell line, read-out: Colorectal cancer, EC50 (μM) DLD-1) of 0.265 µM, an EC50 ([6]; SW48 cell line, read-out: Colorectal cancer, EC50 (μM) SW48) of 0.131 µM and an EC50 ([6]; SW480 cell line, read-out: Colorectal cancer, EC50 (μM) SW480) of 0.19 µM. It also gave an EC50 ([7]; BXPC-3, BxPC3 cell line, read-out: Pancreatic cancer, EC50 BxPC3) of 918 nM, an EC50 ([7]; CAPAN-1, Capan1 cell line, read-out: Pancreatic cancer, EC50 Capan1) of 1020 nM and an EC50 ([7]; Capan-2, Capan2 cell line, read-out: Pancreatic cancer, EC50 Capan2) of 1420 nM. For the same compound, the EC50 ([7]; MIA PaCa-2 cell line, read-out: Pancreatic cancer, EC50 MIA PaCa-2) was 433 nM, the EC50 ([7]; PANC 05.04 cell line, read-out: Pancreatic cancer, EC50 PANC 05.04) was 664 nM and the EC50 ([7]; PANC-1 cell line, read-out: Pancreatic cancer, EC50 PANC-1) was 1160 nM. For the same compound, the EC50 ([7]; UPAFII cell line, read-out: Pancreatic cancer, EC50 UPAFII) was 281 nM.
